Measured values taken from patent publication US10968193B2, “Antidiabetic bicyclic compounds” (Merck Sharp & Dohme Corp., priority 2014, dated 2021).
pEC50: −log10 of the molar value.

Biological target: T1, human GPR40 (Homo sapiens, UniProt O14842)
T1 construct: expressed in transfected cells; host or cells: HEK cells stably expressing the aequorin reporter
Test: Inositol Phosphate Turnover (IP1) Assay 3
Assay type: cell-based
Details: HEK cells stably expressing human GPR40
Procedure, shortened: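 HEK cells stably expressing human GPR40, plated 16 h before, were treated with compound for 60 min at 37 °C in stimulation buffer. IP1 measured by HTRF (665/620 nm ratio) against an IP1 standard curve; activity normalized to a reference compound, EC50 from 4-parameter fit.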

T1 sequence (O14842 whole entry): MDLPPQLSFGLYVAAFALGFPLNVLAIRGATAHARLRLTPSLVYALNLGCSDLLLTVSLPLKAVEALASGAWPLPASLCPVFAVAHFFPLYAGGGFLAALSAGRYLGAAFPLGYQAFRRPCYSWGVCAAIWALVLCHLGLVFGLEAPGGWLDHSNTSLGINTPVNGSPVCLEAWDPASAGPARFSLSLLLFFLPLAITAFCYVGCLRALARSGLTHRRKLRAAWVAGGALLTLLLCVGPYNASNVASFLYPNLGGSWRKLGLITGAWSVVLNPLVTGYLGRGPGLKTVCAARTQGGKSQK

Row | pEC50 | SMILES
1 | 9.37 | CCN(CC)C(C)c1cc(C2CCc3ccc([C@H](C4CC4)[C@H](C)C(=O)O)cc3O2)ccc1-c1cc(OC)ncc1F (single isomer, unassigned) [Example 244]
2 | 8.27 | CCN(CC)C(C)c1cc(C2CCc3ccc([C@H](C4CC4)[C@H](C)C(=O)O)cc3O2)ccc1-c1cc(OC)ncc1F (single isomer, unassigned) [Example 245]
3 | 8.89 | CCN(C(C)C)C(C)c1cc(C2CCc3ccc([C@H](C4CC4)[C@H](C)C(=O)O)cc3O2)ccc1-c1ccnc(OC)c1 (single isomer, unassigned) [Example 247]
4 | 7.94 | CCN(C(C)C)C(C)c1cc(C2CCc3ccc([C@H](C4CC4)[C@H](C)C(=O)O)cc3O2)ccc1-c1ccnc(OC)c1 (single isomer, unassigned) [Example 248]
5 | 9.22 | COc1cc(-c2ccc(C3CCc4ccc([C@H](C5CC5)[C@H](C)C(=O)O)cc4O3)cc2CN2CCC3CC32)c(F)cn1 (single isomer, unassigned) [Example 256a]
6 | 9.05 | COc1cc(-c2ccc(C3CCc4ccc([C@H](C5CC5)[C@H](C)C(=O)O)cc4O3)cc2CN2CCC3CC32)c(F)cn1 (single isomer, unassigned) [Example 256b]
7 | 8.77 | CCC1CCCCN1Cc1cc(C2CCc3ccc(C(C4CC4)C(C)C(=O)O)cc3O2)ccc1-c1ccnc(OC)c1 (single isomer, unassigned) [Example 258a]
8 | 8.66 | CCC1CCCCN1Cc1cc(C2CCc3ccc(C(C4CC4)C(C)C(=O)O)cc3O2)ccc1-c1ccnc(OC)c1 (single isomer, unassigned) [Example 258b]
9 | 9.15 | CCC1CCCN1Cc1cc(C2CCc3ccc([C@H](C4CC4)[C@H](C)C(=O)O)cc3O2)ccc1-c1cc(OC)ncc1F (single isomer, unassigned) [Example 267a]
10 | 10.00 | CCC1CCCN1Cc1cc(C2CCc3ccc([C@H](C4CC4)[C@H](C)C(=O)O)cc3O2)ccc1-c1cc(OC)ncc1F (single isomer, unassigned) [Example 267b]
11 | 10.10 | CCC1CCCCN1Cc1cc(C2CCc3ccc([C@H](C4CC4)[C@H](C)C(=O)O)cc3O2)ccc1-c1cc(OC)ncc1F (single isomer, unassigned) [Example 273a]
12 | 9.52 | CCC1CCCCN1Cc1cc(C2CCc3ccc([C@H](C4CC4)[C@H](C)C(=O)O)cc3O2)ccc1-c1cc(OC)ncc1F (single isomer, unassigned) [Example 273b]
13 | 8.36 | CCN(CC)Cc1cc(C2CCc3ccc([C@H](C4CC4)[C@H](C)C(=O)O)cc3O2)ccc1-c1ccnc(OC)c1 (single isomer, unassigned) [Example 283]
14 | 8.02 | COc1cc(-c2ccc(C3CCc4ccc([C@H](C5CC5)[C@H](C)C(=O)O)cc4O3)nc2CN2CCCC2)c(F)cn1 (stereo partly drawn) [Example 90]
15 | 6.33 | COc1cc(-c2ccc(C3CCc4ccc([C@H](C5CC5)[C@H](C)C(=O)O)cc4O3)nc2CN(C(C)C)C(C)C)ccn1 (stereo partly drawn) [Example 91]
16 | 10.15 | COc1cc(-c2ccc(C3CCc4ccc([C@H](C5CCC5)[C@H](C)C(=O)O)cc4O3)cc2CN2CCCC2C)c(F)cn1 (stereo partly drawn) [Example 102]
17 | 10.05 | COc1cc(-c2ccc(C3CCc4ccc([C@H](C5CCC5)[C@H](C)C(=O)O)cc4O3)cc2CN2CCCC2C)c(F)cn1 (stereo partly drawn) [Example 103]
18 | 6.98 | COc1cc(-c2ccc(C3CCc4ccc([C@H](C5CC5)[C@H](C)C(=O)O)cc4O3)c(CN3[C@H](C)CC[C@H]3C)c2)ccn1 (stereo partly drawn) [Example 116]

Row | pEC50 | SMILES
19 | 9.40 | COc1cc(-c2ccc(C3CCc4ccc([C@H](C5CC5)[C@H](C)C(=O)O)cc4O3)c(CN3CCCC[C@@H]3C)c2)ccn1 (stereo partly drawn) [Example 121]
20 | 9.15 | COc1cc(-c2ccc(C3CCc4ccc([C@H](C5CC5)[C@H](C)C(=O)O)cc4O3)c(CN3[C@H](C)CC[C@@H]3C)c2)ccn1 (stereo partly drawn) [Example 122]
21 | 9.70 | COc1cc(-c2ccc(C3CCc4ccc([C@H](C5CC5)[C@H](C)C(=O)O)cc4O3)c(CN3[C@H](C)CC[C@H]3C)c2)c(F)cn1 (stereo partly drawn) [Example 127]
22 | 10.05 | COc1cc(-c2ccc(C3CCc4ccc([C@H](C5CC5)[C@H](C)C(=O)O)cc4O3)c(CN3CCCC[C@@H]3C)c2)c(F)cn1 (stereo partly drawn) [Example 131]
23 | 9.52 | COc1cc(-c2ccc([C@H]3CCc4ccc([C@H](C5CC5)[C@H](C)C(=O)O)cc4O3)cc2CN2C[C@H]3C[C@H]3C2)c(F)cn1 [Example 138]
24 | 9.30 | CCN(Cc1cc([C@H]2CCc3ccc([C@H](C4CC4)[C@H](C)C(=O)O)cc3O2)ccc1-c1cc(OC)ncc1F)C(C)C [Example 139]
25 | 10.15 | COc1cc(-c2ccc([C@H]3CCc4ccc([C@H](C5CC5)[C@H](C)C(=O)O)cc4O3)cc2CN(C(C)C)C(C)C)c(F)cn1 [Example 170]
26 | 7.28 | COc1cc(-c2ccc(C3CCc4ccc([C@H](C5CC5)[C@H](C)C(=O)O)cc4O3)cc2CN2CCCC2)ccn1 (stereo partly drawn) [Example 175, (2S, 3R)-3-cyclopropyl-3-(2-(4-(2-methoxypyridin-4-yl)-3-(pyrrolidin-1-ylmethyl)phenyl)-chroman-7-yl)-2-methylpropanoic acid]
27 | 9.70 | COc1cc(-c2ccc([C@H]3CCc4ccc([C@H](C5CC5)[C@H](C)C(=O)O)cc4O3)cc2CN2CCCCC23CC3)ccn1 [Example 176]
28 | 8.72 | COc1cc(-c2ccc(C3CCc4ccc([C@H](C5CC5)[C@H](C)C(=O)O)cc4O3)cc2CN2CC3CC3C2)c(C#N)cn1 (stereo partly drawn) [Example 191, (2S, 3R)-3-(2-(3-(3-azabicyclo[3.1.0]hexan-3-ylmethyl)-4-(5-cyano-2-methoxypyridin-4-yl)phenyl)chroman-7-yl)-3-cyclopropyl-2-methylpropanoic acid]
29 | 10.15 | COc1cc(-c2ccc([C@@H]3CCc4ccc([C@H](C5CC5)[C@H](C)C(=O)O)cc4O3)cc2CN(C(C)C)C(C)C)c(F)cn1 [Example 225, Sodium (2S,3R)-3-cyclopropyl-3-((S)-2-(3-((diisopropylamino)methyl)-4-(5-fluoro-2-methoxypyridin-4-yl)phenyl)chroman-7-yl)-2-methylpropanoate]
30 | 8.96 | COc1cc(-c2ccc([C@@H]3CCc4ccc([C@H](C5CC5)[C@H](C)C(=O)O)cc4O3)cc2CN(C)C(C)(C)C)c(F)cn1 [Example 226, Sodium (2S,3R)-3-((S)-2-(3-((tert-butyl(methyl)amino)methyl)-4-(5-fluoro-2-methoxypyridin-4-yl)phenyl)chroman-7-yl)-3-cyclopropyl-2-methylpropanoate]
31 | 7.85 | COc1cc(-c2ccc(C3CCc4ccc([C@H](C5CC5)[C@@H](C)C(=O)O)cc4O3)cc2CN(C)C(C)(C)C)c(F)cn1 (stereo partly drawn) [Example 227]
32 | 9.92 | CCN(Cc1cc(C2CCc3ccc([C@H](C4CC4)[C@H](C)C(=O)O)cc3O2)ccc1-c1cc(OC)ncc1F)C(C)(C)C (stereo partly drawn) [Example 228]
33 | 10.15 | COc1cc(-c2ccc(C3CCc4ccc([C@H](C5CC5)[C@H](C)C(=O)O)cc4O3)cc2CN(C(C)C)C(C)(C)C)c(F)cn1 (stereo partly drawn) [Example 229]
34 | 10.05 | COc1cc(-c2ccc(C3CCc4ccc([C@H](C5CC5)[C@H](C)C(=O)O)cc4O3)cc2CN2C(C)(C)CCCC2(C)C)c(F)cn1 (stereo partly drawn) [Example 230]
35 | 9.80 | COc1cc(-c2ccc(C3CCc4ccc([C@H](C5CC5)[C@H](C)C(=O)O)cc4O3)cc2CN2[C@@H](C)CCC[C@@H]2C)c(F)cn1 (stereo partly drawn) [Example 231]
36 | 7.44 | COc1cc(-c2ccc([C@@H]3CCc4ccc([C@H](C5CC5)[C@H](C)C(=O)O)cc4O3)cc2CNC(C)C)c(F)cn1 [Example 232]
